Assay results reported in PubChem BioAssay (NCI).
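Results reflect a 48-hour exposure of cells in 96-well plates to compound at five concentrations. At the GI50, growth is halved. At the TGI there is no net growth.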

Experiments:
Assay in all cases: inhibition of tumour cell growth, NCI panel, 48 h
SK-MEL-2 melanoma = system: SK-MEL-2 melanoma
NCI-H460 lung = system: NCI-H460 lung
EKVX NSCLC = system: EKVX NSCLC
786-0 renal = system: 786-0 renal
SF-295 CNS = system: SF-295 CNS
HT29 colon = system: HT29 colon
NCI-H23 lung = system: NCI-H23 lung
IGROV1 ovarian = system: IGROV1 ovarian
M14 melanoma = system: M14 melanoma
A498 renal = system: A498 renal

Row | SMILES | TGI (SK-MEL-2 melanoma) [µM] | TGI (NCI-H460 lung) [µM] | TGI (EKVX NSCLC) [µM] | TGI (786-0 renal) [µM] | TGI (SF-295 CNS) [µM] | TGI (HT29 colon) [µM] | TGI (NCI-H23 lung) [µM] | TGI (IGROV1 ovarian) [µM] | TGI (M14 melanoma) [µM] | GI50 (SK-MEL-2 melanoma) [µM] | GI50 (NCI-H460 lung) [µM] | GI50 (786-0 renal) [µM] | GI50 (A498 renal) [µM] | TGI (A498 renal) [µM] | GI50 (HT29 colon) [µM] | GI50 (NCI-H23 lung) [µM] | GI50 (IGROV1 ovarian) [µM] | GI50 (M14 melanoma) [µM] | GI50 (SF-295 CNS) [µM] | GI50 (EKVX NSCLC) [µM]
1 | Cc1ccc(-c2nnc(-c3nn(-c4ccccc4)c4nc5ccccc5nc34)o2)cc1 | 39 | 41.6 | > 100 | 21.6 | 36.8 | > 100 | 40.6 | 41.7 | > 100 |  |  |  |  |  |  |  |  |  |  | 
2 | CCN(CC)CC1c2ccccc2C(CNc2ccccc2)N1C (configuration not stated) | > 100 | > 100 | > 100 | > 100 | > 100 |  | > 100 | > 100 | > 100 |  |  |  |  |  |  |  |  |  |  | 
3 | COC(=O)C1(C)CCc2c(OC)ccc(OC)c2C1=O (configuration not stated) | > 100 |  | > 100 | > 100 | > 100 |  | > 100 | > 100 | > 100 |  |  |  |  |  |  |  |  |  |  | 
4 | O=C1/C(=C/c2ccccc2[N+](=O)[O-])Cc2ccccc21 | 19.7 | 13.1 |  | 6.9 |  | 3.15 | 7 | 8.59 | 3.96 | 5.39 | 1.15 | 2.57 | 2.17 | 5.36 | 0.931 | 2.2 | 1.25 | 1.97 |  | 
5 | CN=c1ccc2nc3ccc(N)cc3sc-2c1 | 30.9 | > 100 |  | 25.9 | 3.79 | 34.3 | 12.9 | 6.24 | 10.8 | 11 | 3.86 | 10.5 | 79.5 | > 100 | 8.44 | 1.83 | 2.54 | 2.04 | 0.962 | 
6 | CS(=O)(=O)c1ccc(-c2cc(-c3ccc(S(C)(=O)=O)cc3)[n+](-c3cc(-c4ccc(S(C)(=O)=O)cc4)c([O-])c(-c4ccc(S(C)(=O)=O)cc4)c3)c(-c3ccc(S(C)(=O)=O)cc3)c2)cc1 | > 100 | > 100 |  | > 100 | > 100 | > 100 | > 100 | > 100 | > 100 |  |  |  |  |  |  |  |  |  |  | 
7 | CO/N=C(\COc1ccc2c(c1)[nH]c1ccccc12)c1ccc(F)cc1 |  | > 100 | > 100 | > 100 | > 100 | > 100 | > 100 | > 100 | > 100 |  | > 100 | 16.8 |  |  | > 100 | > 100 | 77.3 | > 100 | 30.1 | 65.9
8 | CO[C@H]1CC(O[C@@H]2/C(C)=C/C[C@@H]3C[C@@H](C[C@]4(C=C[C@H](C)[C@@H](C5CCCCC5)O4)O3)OC(=O)[C@@H]3C=C(C)[C@@H](O)[C@H]4OC/C(=C\C=C\[C@@H]2C)[C@]43O)O[C@@H](C)C1O[C@H]1C[C@H](OC)[C@@H](O)[C@H](C)O1 (some centres not stated) |  |  |  | 3.14 | 2.83 | 3.85 |  |  | 3.13 |  |  | 1.54 |  |  | 1.87 |  |  | 1.67 | 1.33 | 
9 | COc1cc2c3c(n(C)c(=O)c2cc1OC)-c1cc2c(cc1/C3=C\CCCCN1C(=O)c3ccccc3C1=O)OCO2 |  | 43.7 |  | > 100 | 68.1 | > 100 | 19.2 |  | > 100 |  | 3.52 | 16 | 2.79 | 37.1 | 18 | 1.34 |  | 38.4 | 11 | 
10 | C/C(=C\c1ccc2ccccc2c1)[N+](=O)[O-] | 3.35 | 3.83 |  | 3.83 | 27.6 | 4.46 |  |  | 4.94 | 1.85 | 1.88 | 1.99 | 8.63 | 20.9 | 2.18 |  |  | 2.2 | 13.1 | 
11 | COc1ccc(-c2cc(Cc3cccs3)c(=O)[nH]n2)cc1 | > 100 |  | > 100 | > 100 | > 100 | > 100 | > 100 | > 100 |  |  |  |  |  |  |  |  |  |  |  | 
12 | O=C(NC1CCCCC1)NS(=O)(=O)c1ccc2c(c1)CCC2 | > 100 |  | > 100 | > 100 | > 100 |  | > 100 | > 100 | > 100 |  |  |  |  |  |  |  |  |  |  | 
13 | Clc1ccc(Nc2nc3ccccc3nc2-c2cccs2)cc1Cl | > 100 | > 100 | > 100 | > 100 | > 100 | > 100 | > 100 |  |  |  |  |  |  |  |  |  |  |  |  | 
14 | O=C1C(=C([O-])c2ccccc2)C(=O)c2ccccc21.O=C1C(=C([O-])c2ccccc2)C(=O)c2ccccc21.[Fe+2] |  |  |  | > 100 | > 100 | > 100 | > 100 | > 100 | > 100 |  |  | > 100 | > 100 | > 100 | > 100 | 58.8 | > 100 | > 100 | 44 | 
15 | CCOC(=O)C1C(=S)NC(=O)C1C#N (configuration not stated) | > 100 | > 100 | > 100 | > 100 | > 100 | > 100 | > 100 | > 100 | > 100 |  |  |  |  |  |  |  |  |  |  | 
